The source of these data is ChEMBL document CHEMBL1130598, “Pyrroles and other heterocycles as inhibitors of p38 kinase” (Bioorg Med Chem Lett, 1998).

Data set [1] deals with Mitogen-activated protein kinase 14 (Rattus norvegicus, UniProt P70618). The data set is described as follows: Inhibitory potency evaluated against rat p38 kinase.
Data set [2] is described as follows: Pharmacokinetic parameter area under curve was determined at 10 mg/kg po dose in rats. In kind it is ADME, organism-based. On the set-up: dose 10 mg/kg, route oral. The following applies: rat, in vivo.
Data set [3] is described as follows: Pharmacokinetic parameter area under curve was determined at 2 mg/kg i.v. dose in rats. More on the design: dose 2 mg/kg, route intravenous. In kind it is ADME, organism-based. As to conditions: rat, in vivo, iv.
Data set [4] is described as follows: Pharmacokinetic parameter area under curve was determined at 3 mg/kg po dose in rats. It is filed as ADME, organism-based. More on the design: dose 3 mg/kg, route oral. As to conditions: rat, in vivo.
Data set [5] in a line: Pharmacokinetic parameter area under curve was determined at 5 mg/kg i.v. dose in rats. As to conditions: rat, in vivo, iv. More on the design: dose 5 mg/kg, route intravenous. It is filed as ADME, organism-based.
The target in data set [6] is T1, Mitogen-activated protein kinase 12 (Homo sapiens) (UniProt P53778).
T1 sequence (whole entry): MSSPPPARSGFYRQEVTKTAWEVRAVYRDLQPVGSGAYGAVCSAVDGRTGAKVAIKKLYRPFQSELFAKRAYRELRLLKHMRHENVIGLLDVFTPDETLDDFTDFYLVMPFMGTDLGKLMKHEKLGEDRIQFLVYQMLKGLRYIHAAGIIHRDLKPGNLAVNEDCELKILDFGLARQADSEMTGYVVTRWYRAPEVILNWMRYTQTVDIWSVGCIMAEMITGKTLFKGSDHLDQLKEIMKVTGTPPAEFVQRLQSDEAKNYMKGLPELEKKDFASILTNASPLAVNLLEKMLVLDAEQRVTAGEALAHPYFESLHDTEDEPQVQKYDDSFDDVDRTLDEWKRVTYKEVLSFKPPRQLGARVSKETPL
The data set is described as follows: Inhibition of Mitogen-activated protein kinase p38 gamma at 25 uM.

The target in data set [7] is Mitogen-activated protein kinase 14 (Homo sapiens, UniProt Q16539). Put plainly: Inhibition of Mitogen-activated protein kinase p38 alpha.
For data set [8], the target named is Mitogen-activated protein kinase 11 (Homo sapiens, UniProt Q15759). The data set is described as follows: Inhibition of Mitogen-activated protein kinase p38 beta.
In data set [9] the target is T2, RAF proto-oncogene serine/threonine-protein kinase (Homo sapiens, UniProt P04049). Put plainly: Inhibition of RAF kinase.
Data set [10] concerns the target T2, RAF proto-oncogene serine/threonine-protein kinase. Put plainly: Inhibition of RAF kinase at 1 uM.
The species named for data set [11] is Rattus norvegicus. Put plainly: Inhibition of secondary paw swelling in rat adjuvant arthritis model. It is filed as functional.
For data set [12], the target named is T3, Mitogen-activated protein kinase 9 (Homo sapiens, UniProt P45984). Put plainly: Inhibition of c-Jun N-terminal kinase 2-alpha 2.
In data set [13] the target is T3, Mitogen-activated protein kinase 9. The data set is described as follows: Inhibition of c-Jun N-terminal kinase 2-beta 1.
Data set [14] concerns the target T4, Mitogen-activated protein kinase 8 (Homo sapiens, UniProt P45983). The data set is described as follows: Inhibition of c-Jun N-terminal kinase 1-alpha 1 at 20 uM.
Data set [15] is described as follows: Pharmacokinetic parameter Vdss was determined at 5 mg/kg i.v. dose in rats. It is filed as ADME, organism-based. More on the design: dose 5 mg/kg, route intravenous. As to conditions: rat, in vivo, iv, read-out: Vdss.
Data set [16] in a line: T max was determined at 10 mg/kg po dose in rats. It is filed as ADME, organism-based. On the set-up: dose 10 mg/kg, route oral. The following applies: rat, in vivo.
The nature of data set [17]: T max was determined at 3 mg/kg po dose in rats. It is filed as ADME, organism-based. On the set-up: dose 3 mg/kg, route oral. As to conditions: rat, in vivo.
In data set [18] the test system is Rattus norvegicus. The data set is described as follows: Pharmacokinetic parameter plasma clearance was determined at 2 mg/kg i.v. dose in rats. In kind it is ADME, organism-based. On the set-up: dose 2 mg/kg, route intravenous. As to conditions: in vivo, iv.
The subject of data set [19] is Rattus norvegicus. Put plainly: Pharmacokinetic parameter plasma clearance was determined at 5 mg/kg i.v. dose in rats. More on the design: dose 5 mg/kg, route intravenous. In kind it is ADME, organism-based. As to conditions: in vivo, iv.
A short description of data set [20]: Bioavailability was determined at 3 mg/kg po dose in rats. As to conditions: rat, in vivo. It is filed as ADME, organism-based.
The nature of data set [21]: C max was determined at 3 mg/kg po dose in rats. More on the design: dose 3 mg/kg, route oral. It is filed as ADME, organism-based. As to conditions: rat, in vivo.
The nature of data set [22]: Pharmacokinetic parameter half-life was determined at 10 mg/kg po dose in rats. It is filed as ADME, organism-based. On the set-up: dose 10 mg/kg, route oral. As to conditions: rat, in vivo.
The nature of data set [23]: Pharmacokinetic parameter half-life was determined at 2 mg/kg i.v. dose in rats. It is filed as ADME, organism-based. On the set-up: dose 2 mg/kg, route intravenous. The following applies: rat, in vivo, iv.
Data set [24] in a line: Pharmacokinetic parameter half-life was determined at 3 mg/kg po dose in rats. It is filed as ADME, organism-based. On the set-up: dose 3 mg/kg, route oral. As to conditions: rat, in vivo.
The nature of data set [25]: Pharmacokinetic parameter half-life was determined at 5 mg/kg i.v. dose in rats. On the set-up: dose 5 mg/kg, route intravenous. In kind it is ADME, organism-based. As to conditions: rat, in vivo, iv.
For data set [26], the system named is Rattus norvegicus. Put plainly: Inhibition of secondary paw swelling in rat adjuvant arthritis model at 20 mg/kg/ b.i.d. In kind it is functional. The following applies: intraduodenal.
Data set [27] addresses T4, Mitogen-activated protein kinase 8. The data set is described as follows: Inhibition of c-Jun N-terminal kinase 1-alpha 1.
Data set [28] in a line: Pharmacokinetic parameter Vdss was determined at 2 mg/kg i.v. dose in rats. It is filed as ADME, organism-based. On the set-up: dose 2 mg/kg, route intravenous. The following applies: rat, in vivo, iv, read-out: Vdss.
Data set [29] is described as follows: C max was determined at 10 mg/kg po dose in rats. On the set-up: dose 10 mg/kg, route oral. It is filed as ADME, organism-based. The following applies: rat, in vivo.
Data set [30] addresses T1, Mitogen-activated protein kinase 12 (Homo sapiens). As to conditions: 50 uM.
Description: Inhibition of Mitogen-activated protein kinase p38 gamma at 50 uM

Molecules are shown by their SMILES. Where only a bound is given, the exact number is not on record here.

T2 sequence (P04049 whole entry): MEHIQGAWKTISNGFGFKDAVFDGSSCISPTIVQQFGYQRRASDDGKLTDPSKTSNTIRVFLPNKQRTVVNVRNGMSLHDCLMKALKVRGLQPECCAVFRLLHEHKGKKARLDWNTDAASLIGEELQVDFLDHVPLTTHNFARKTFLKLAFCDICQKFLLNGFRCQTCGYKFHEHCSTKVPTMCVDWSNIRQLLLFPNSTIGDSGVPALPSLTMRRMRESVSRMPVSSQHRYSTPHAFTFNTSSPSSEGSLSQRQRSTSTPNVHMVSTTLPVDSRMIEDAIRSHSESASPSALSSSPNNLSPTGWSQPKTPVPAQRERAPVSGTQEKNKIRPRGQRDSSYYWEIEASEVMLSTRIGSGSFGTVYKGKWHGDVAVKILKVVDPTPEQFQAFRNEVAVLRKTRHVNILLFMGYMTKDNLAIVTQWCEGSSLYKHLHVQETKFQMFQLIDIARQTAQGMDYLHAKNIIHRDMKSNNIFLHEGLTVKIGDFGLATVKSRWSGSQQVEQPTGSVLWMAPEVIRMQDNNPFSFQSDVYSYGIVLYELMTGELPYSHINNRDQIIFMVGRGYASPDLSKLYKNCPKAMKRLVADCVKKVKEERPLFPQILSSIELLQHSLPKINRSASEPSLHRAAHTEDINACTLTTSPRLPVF
T3 sequence (P45984 whole entry): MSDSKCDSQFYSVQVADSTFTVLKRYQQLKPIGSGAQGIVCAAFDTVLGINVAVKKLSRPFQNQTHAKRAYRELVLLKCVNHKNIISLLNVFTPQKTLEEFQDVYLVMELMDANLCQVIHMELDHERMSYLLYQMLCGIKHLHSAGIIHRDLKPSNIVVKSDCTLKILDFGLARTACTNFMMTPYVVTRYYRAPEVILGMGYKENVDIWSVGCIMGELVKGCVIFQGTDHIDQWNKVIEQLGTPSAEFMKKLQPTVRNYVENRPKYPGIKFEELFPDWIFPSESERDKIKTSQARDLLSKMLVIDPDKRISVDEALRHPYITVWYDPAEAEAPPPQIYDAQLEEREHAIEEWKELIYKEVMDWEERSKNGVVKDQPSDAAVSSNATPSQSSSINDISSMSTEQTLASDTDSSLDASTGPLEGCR
Sequence of Mitogen-activated protein kinase 14 (Rattus norvegicus, UniProt P70618) (P70618 whole entry): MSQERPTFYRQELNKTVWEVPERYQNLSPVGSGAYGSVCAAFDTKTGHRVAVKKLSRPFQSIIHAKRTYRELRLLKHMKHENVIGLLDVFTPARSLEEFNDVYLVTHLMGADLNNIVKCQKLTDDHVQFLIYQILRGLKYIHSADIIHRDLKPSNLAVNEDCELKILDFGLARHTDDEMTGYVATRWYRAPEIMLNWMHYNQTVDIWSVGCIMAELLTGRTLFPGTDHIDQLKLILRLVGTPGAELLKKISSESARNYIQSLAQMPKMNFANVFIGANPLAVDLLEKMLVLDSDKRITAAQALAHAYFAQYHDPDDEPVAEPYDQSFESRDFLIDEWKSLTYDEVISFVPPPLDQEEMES
T4 sequence (P45983 whole entry): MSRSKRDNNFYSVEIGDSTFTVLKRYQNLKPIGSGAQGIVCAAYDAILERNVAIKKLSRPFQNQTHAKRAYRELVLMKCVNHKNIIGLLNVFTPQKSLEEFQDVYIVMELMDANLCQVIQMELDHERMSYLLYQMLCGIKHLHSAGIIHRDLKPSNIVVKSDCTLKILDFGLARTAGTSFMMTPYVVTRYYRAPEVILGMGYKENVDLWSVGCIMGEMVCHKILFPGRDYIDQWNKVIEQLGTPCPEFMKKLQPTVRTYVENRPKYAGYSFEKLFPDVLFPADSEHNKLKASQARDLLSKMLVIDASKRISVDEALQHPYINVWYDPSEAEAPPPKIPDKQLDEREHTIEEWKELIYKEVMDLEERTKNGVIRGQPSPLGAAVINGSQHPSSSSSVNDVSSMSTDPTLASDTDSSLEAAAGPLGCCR
Sequence of Mitogen-activated protein kinase 11 (Q15759 whole entry): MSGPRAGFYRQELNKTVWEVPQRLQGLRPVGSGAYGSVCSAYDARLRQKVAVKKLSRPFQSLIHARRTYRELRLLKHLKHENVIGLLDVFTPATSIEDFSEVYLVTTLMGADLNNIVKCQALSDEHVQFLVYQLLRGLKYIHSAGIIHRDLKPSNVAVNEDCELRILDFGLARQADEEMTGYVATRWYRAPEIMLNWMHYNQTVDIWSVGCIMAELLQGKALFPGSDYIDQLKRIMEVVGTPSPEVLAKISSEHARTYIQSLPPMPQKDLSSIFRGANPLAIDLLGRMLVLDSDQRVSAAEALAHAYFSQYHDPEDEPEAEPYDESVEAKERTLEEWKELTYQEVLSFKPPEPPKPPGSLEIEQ
Sequence of Mitogen-activated protein kinase 14 (Homo sapiens, UniProt Q16539) (Q16539 whole entry): as the sequence (P70618 whole entry) above, with V17I, H48L, A263T, E321D, F332L counted along it

The IC50 is the point on the concentration scale where inhibition reaches its midpoint. A lower IC50 goes with inhibition by little substance. On to `Fc1ccc(-c2cc(-c3ccc(Cl)cc3)[nH]c2-c2ccncc2)cc1`, for which the IC50 in data set [1] is 1400 nM.
In data set [1], `FC(F)(F)c1ccc(-c2[nH]c(-c3ccccc3)cc2-c2ccncc2)cc1` had an IC50 of 910 nM.
Take `CSc1ccc(-c2cc(-c3ccncc3)c(-c3ccc(F)cc3)[nH]2)cc1`: the IC50 in data set [1] came to 44 nM.
As to `Clc1ccc(-c2[nH]c(-c3ccccc3)cc2-c2ccncc2)cc1Cl`, the IC50 in data set [1] is 30 nM.
Still for that read-out and setting: under `Fc1ccc(-c2[nH]c(-c3ccccc3)cc2-c2ccncc2)c(F)c1` stands 29 nM.
On the same count and under the same terms, under `Fc1ccc(-c2[nH]c(-c3ccc(Br)cc3)cc2-c2ccncc2)cc1` stands 100 nM.
The AUC is the area under the concentration-time curve, a measure of exposure. The low end stands for low exposure, the high end for high exposure. As a reminder, the inhibition is the relative decrease from the control value, in per cent. Lower therefore signals a weak effect. Regarding `CS(=O)(=O)c1ccc(-c2cc(-c3ccncc3)c(-c3ccc(F)cc3)[nH]2)cc1`, the AUC in [2] was determined as 95.7 µM·h; in [3] it was 6.18 µM·h; in [4] it was 5.8 µM·h; in data set [5], 32.6 µM·h. The values for the inhibition in data set [6], in [10] and in data set [14] were 37%, 50% and 50%, respectively. In addition, the IC50 in data set [7] turned out to be 9 nM; in data set [8], 10 nM; in [1], 9.8 nM; in data set [9], 500 nM; in data set [12], 6850 nM; in [13], 1080 nM. Moreover, in data set [11] (Rattus norvegicus, read-out: ID50 (the source's name)), the ED50 is 7.4 mg/kg/day.
For the compound `Fc1ccccc1-c1cc(-c2ccncc2)c(-c2ccccc2)[nH]1`, the half-inhibitory concentration (IC50) in data set [1] was determined as 34 nM.
`Fc1ccc(-c2[nH]c(-c3ccccc3)cc2-c2ccncn2)cc1`: in data set [1], the IC50 came to 710 nM.
As for `O=[N+]([O-])c1cccc(-c2cc(-c3ccncc3)c(-c3ccccc3)[nH]2)c1`, the IC50 in [1] amounted to 53 nM.
Turning to `CCOC(=O)c1ccc(-c2[nH]c(-c3ccccc3)cc2-c2ccncc2)cc1`, the IC50 in data set [1] is more than 10000 nM.
For orientation: Tmax means the time at which the peak concentration occurs. A word on the bioavailability: it is dose-corrected exposure relative to a reference, in per cent. Read a low bioavailability as little systemic uptake. Broadly, the Cmax is the peak of the concentration-time curve. By half-life is commonly meant the time in which the quantity being followed falls by half. Read a high half-life as slow decline. By inhibition in vivo is commonly meant the change of the read-out against control, counted positive when it falls. With `C[S+]([O-])c1ccc(-c2cc(-c3ccncc3)c(-c3ccc(F)cc3)[nH]2)cc1` (stereo unspecified), the Vd worked out at 1.81 L/kg in data set [15] and 2.23 L/kg in data set [28]. Besides, the time of peak concentration (Tmax) in [16] was 1.05 h; in data set [17], 1 h. The Clp in data set [18] amounted to 42.6 mL/min/kg; in [19] it was 22.5 mL/min/kg. For the same compound, the bioavailability in [20] stood at 25.6%. Also, the peak concentration (Cmax) in data set [21] came out at 0.31 µM; in data set [29], 5.71 µM. The half-life in data set [22] came out at 2.59 h; in data set [23], 0.652 h; in [24], 2.04 h; in data set [25] it was 1.06 h. In addition, the AUC was 16.7 µM·h in data set [2], 2.1 µM·h in data set [3], 0.81 µM·h in [4] and 10 µM·h in data set [5]. Moreover, the IC50 in data set [7] was determined as 5 nM; in data set [8], 8.1 nM; in [1], 5.1 nM; in [9], 470 nM; in data set [12] it was 7610 nM; in data set [13], 1500 nM. For the same compound, the IC50 in data set [27] was determined as 16000 nM. Besides, the ID50 in data set [11] is reported as 7.4 mg kg-1 b.i.d. For the same compound, the inhibition in vivo at 20 mg/kg in [26] came to 90%. The inhibition in data set [30] was found to be 42%.
In [1], `COc1ccc(OC)c(-c2cc(-c3ccncc3)c(-c3ccccc3)[nH]2)c1` displayed a half-maximal inhibitory concentration (IC50) of 5000 nM.
Regarding `Fc1ccc(-c2[nH]c(-c3ccc(Cl)cc3)cc2-c2ccccn2)cc1`, the concentration for half-maximal inhibition (IC50) in data set [1] is more than 10000 nM.
Turning to `Fc1ccc(-c2[nH]c(-c3ccccc3)cc2-c2ccncc2)cc1F`, the IC50 in [1] was determined as 4.4 nM.
Consider `O=C(NCCN1CCCCC1)c1ccc(-c2cc(-c3ccncc3)c(-c3ccccc3)[nH]2)cc1`, for which half-maximal inhibition in data set [1] (IC50) was put at 97 nM.
In [1], `Clc1ccc(-c2[nH]c(-c3ccccc3)cc2-c2ccncc2)cc1` came in with an IC50 of 18 nM.
`Cc1cnccc1-c1cc(-c2ccc([S+](C)[O-])cc2)[nH]c1-c1ccc(F)cc1` (stereo unspecified) had an IC50 in data set [1] of 260 nM.
As for `Fc1ccc(-c2nc(-c3ccc(Cl)cc3)[nH]c2-c2ccncc2)cc1`, the IC50 in [1] worked out at 80 nM.
In data set [1], `COc1ccc(-c2cc(-c3ccncc3)c(-c3ccc(F)cc3)[nH]2)cc1` registered an IC50 of 60 nM.
Regarding `Fc1ccc(-c2cc(-c3ccncc3)c(-c3ccccc3)[nH]2)cc1`, the 50% inhibitory concentration (IC50) in [1] was determined as 17 nM.
The same measure, in the same setting: in the case of `c1ccc(-c2cc(-c3ccncc3)c(-c3cccnc3)[nH]2)cc1` it was 240 nM; in that of `Clc1cccc(-c2[nH]c(-c3ccccc3)cc2-c2ccncc2)c1`, 29 nM; in that of `Fc1ccc(-c2cc(-c3ccc(Cl)cc3)oc2-c2ccncc2)cc1`, 530 nM.
`CC(C)(C)Oc1ccc(-c2[nH]c(-c3ccccc3)cc2-c2ccncc2)cc1` came in with an IC50 in [1] of more than 1000 nM.
In [1], `c1ccc(-c2cc(-c3ccncc3)c(-c3ccccn3)[nH]2)cc1` had a half-inhibitory concentration (IC50) of 2300 nM.
In [1], `CCOC(=O)c1ccc(-c2cc(-c3ccncc3)c(-c3ccccc3)[nH]2)cc1` returned a half-inhibitory concentration (IC50) of 130 nM.
